In patent US20070179121A1, “Method of treating pediatric patients with corticosteroids” (priority 2006, published 2007):

Tested on: HPA-axis
Assay: HPA-axis suppression: serum cortisol before and 30 minutes after intravenous cosyntropin stimulation, pediatric atopic dermatitis patients
Assay type: in vivo, human (pediatric patients)
Protocol: At the baseline visit, physical examinations were performed, including measurements of height, weight, and vital signs, and female subjects of childbearing potential underwent a urine pregnancy test (UPT). Patients with any significant disease of the hepatic, renal, endocrine, musculoskeletal, or nervous system were excluded. At Screening/Baseline, each qualified patient was assessed for a normally functioning HPA axis. Male or female patients with clinically diagnosed atopic dermatitis, involving ≧20% of the total body surface area (BSA), were randomized to receive either qd (once a day) or bid (twice a day) treatment in 4 sequential cohorts. The “rule of nines” method was used in calculating affected BSA.
Enrollment in the 4 cohorts was as follows: Cohort 1-33 patients, 12 to <18 years of age; Cohort 2-32 patients, 6 to <12 years of age; Cohort 3-30 patients, 2 to […] Cohort 4-31 infants, 3 months to <2 years of age.
Enrollment into each cohort began only after evaluation of the preceding cohort in order to minimize the risk of systemic toxicity to the study subjects. Four observations of HPA-axis suppression in a single treatment group per cohort were considered as evidence of a clinically significant risk.
Patients who met the inclusion/exclusion criteria were randomized to receive topical fluocinonide either qd or bid. Patients/guardians were instructed to apply a thin layer of the study product to all treatable areas once or twice daily for 14 days. If the areas to be treated were hairy, patients/guardians were instructed to part the hair to allow direct contact between the study product and the lesion. Patients/guardians were also instructed not to apply study product to lesions of the face, groin, perianal area, and axillae. At the end of Weeks 1, 2, and 4, patients returned to the study site in order for the investigator to perform designated evaluations, review treatment compliance and concomitant therapy, and to collect information regarding adverse events.
The potential of fluocinonide to suppress the HPA-axis was assessed by determining the rate of incidence of suppression, when suppression was defined as a serum cortisol level ≦18 μg/dL, 30 minutes after intravenous cosyntropin stimulation. For a subject to be evaluable for HPA-axis suppression, the subject must have received at least 2 full weeks of fluocinonide treatment prior to the cosyntropin challenge. Pre-and post-cosyntropin-stimulation blood samples were obtained between 7:30 and 8:30 AM to account for diurnal variation in cortisol levels, at the Baseline and Week 2 visits, as directed in the Cortrosyn® package insert. Cortrosyn® is a drug that stimulates the adrenal gland. […] The dose and administration of cosyntropin followed the labeling of the product. Specifically, the dose for subjects 3 to 17 years of age was 0.25 mg, and the dose for subjects 3 months to 2 years old was 0.125 mg. At the end of the 14-day treatment period, any subject with a post-stimulation cortisol level ≦18 μg/dL was re-tested at Week 4 and once every 4 weeks thereafter until the post-stimulation levels were within normal limits.
Mean post-stimulation cortisol levels measured at Baseline and at Week 2 were compared using a paired t test.

[1] = Screening, Cohort 2 (6-<12 years), bid
[2] = Screening, Cohort 2 (6-<12 years), qd
[3] = Screening, Cohort 3 (2-<6 years), bid
[4] = Screening, Cohort 3 (2-<6 years), qd
[5] = Screening, Cohort 4 (3 months to <2 year), bid
[6] = Screening, Cohort 4 (3 months to <2 year), qd
[7] = patient of Cohort 3 bid, Week 2 (samples suspected reversed)

Compound: CC(=O)OCC(=O)[C@@]12OC(C)(C)O[C@@H]1C[C@H]1[C@@H]3C[C@H](F)C4=CC(=O)C=C[C@]4(C)[C@@]3(F)[C@@H](O)C[C@@]12C [Fluocinonide, pregna-1,4-diene-3,20-dione,21-(acetyloxy)-6,9-difluoro-11-hydroxy-16, 17-[(1-methylethylidene)bis(oxy)]-,(6α., 11β,16α)-]
- Cortisol pre-stimulation level, Range (Screening, Cohort 1 (12-<18 years), qd): 2.0 to 26.1 µg/dL
- Cortisol increase in levels, Mean ± SD [1]: 12.3 ± 3.7 µg/dL
- Cortisol increase in levels, Range [1]: 3.8 to 17.8 µg/dL
- Cortisol post-stimulation level, Mean ± SD [1]: 24.9 ± 3.9 µg/dL
- Cortisol post-stimulation level, Range [1]: 19.4 to 32.1 µg/dL
- Cortisol pre-stimulation level, Mean ± SD [1]: 12.5 ± 4.5 µg/dL
- Cortisol pre-stimulation level, Range [1]: 6.4 ± 22.2 µg/dL
- Cortisol increase in levels, Mean ± SD [2]: 14.0 ± 6.1 µg/dL
- Cortisol increase in levels, Range [2]: 3.0 to 22.6 µg/dL
- Cortisol post-stimulation level, Mean ± SD [2]: 28.0 ± 4.3 µg/dL
- Cortisol post-stimulation level, Range [2]: 20.9 to 36.2 µg/dL
- Cortisol pre-stimulation level, Mean ± SD [2]: 14.0 ± 5.0 µg/dL
- Cortisol pre-stimulation level, Range [2]: 6.6 to 25.1 µg/dL
- Cortisol post-stimulation level, Mean ± SD (Screening, Cohort 2 (6-<12 years), qd, listed as fluocinonide): 28.0 µg/dL
- Cortisol increase in levels, Mean ± SD [3]: 15.6 ± 7.0 µg/dL
- Cortisol increase in levels, Range [3]: 1.8 to 30.0 µg/dL
- Cortisol post-stimulation level, Mean ± SD [3]: 29.9 ± 6.1 µg/dL
- Cortisol post-stimulation level, Range [3]: 20.1 to 40.0 µg/dL
- Cortisol pre-stimulation level, Mean ± SD [3]: 14.4 ± 5.6 µg/dL
- Cortisol pre-stimulation level, Range [3]: 6.1 to 23.4 µg/dL
- Cortisol increase in levels, Mean ± SD [4]: 17.4 ± 3.1 µg/dL
- Cortisol increase in levels, Range [4]: 11.2 to 23.0 µg/dL
- Cortisol post-stimulation level, Mean ± SD [4]: 29.0 ± 3.8 µg/dL
- Cortisol post-stimulation level, Range [4]: 22.8 to 37.0 µg/dL
- Cortisol pre-stimulation level, Mean ± SD [4]: 11.6 ± 3.6 µg/dL
- Cortisol pre-stimulation level, Range [4]: 7.3 to 19.8 µg/dL
- Cortisol increase in levels, Mean ± SD [5]: 17.9 ± 4.7 µg/dL
- Cortisol increase in levels, Range [5]: 11.4 to 25.0 µg/dL
- Cortisol post-stimulation level, Mean ± SD [5]: 29.2 ± 6.1 µg/dL
- Cortisol post-stimulation level, Range [5]: 20.5 to 38.8 µg/dL
- Cortisol pre-stimulation level, Mean ± SD [5]: 11.3 ± 4.9 µg/dL
- Cortisol pre-stimulation level, Range [5]: 6.0 to 20.8 µg/dL
- Cortisol increase in levels, Mean ± SD [6]: 16.5 ± 4.7 µg/dL
- Cortisol increase in levels, Range [6]: 6.1 to 23.0 µg/dL
- Cortisol post-stimulation level, Mean ± SD [6]: 28.3 ± 5.1 µg/dL
- Cortisol post-stimulation level, Range [6]: 20.7 to 36.2 µg/dL
- Cortisol pre-stimulation level, Mean ± SD [6]: 11.8 ± 4.3 µg/dL
- Cortisol pre-stimulation level, Range [6]: 4.7 to 19.6 µg/dL
- Suppression of the HPA-axis (administered once daily, patients 3 months to <18 years of age): does not result in suppression of the HPA-axis
- HPA-axis suppression (administered topically once or twice daily, pediatric patients with atopic dermatitis): does not result in any significant level of HPA-axis suppression
- Suppression of the HPA-axis (administered twice daily): low incidence of suppression of the HPA-axis
- Post-stimulation serum cortisol level, single patient (first suppressed patient of Cohort 2 bid, Screening): 32.1 µg/dL
- Post-stimulation serum cortisol level, single patient (first suppressed patient of Cohort 2 bid, Week 2): 17.2 µg/dL
- Post-stimulation serum cortisol level, single patient (first suppressed patient of Cohort 2 bid, Week 4 (2 weeks post-treatment)): 28.7 µg/dL
- Post-stimulation serum cortisol level, single patient (patient of Cohort 3 bid, Screening): 40.0 µg/dL
- Post-stimulation serum cortisol level, single patient [7]: 9.1 µg/dL
- Pre-stimulation serum cortisol level, single patient [7]: 28.0 µg/dL
- Post-stimulation serum cortisol level, single patient (patient of Cohort 3 bid, Week 4): 30.3 µg/dL
- Post-stimulation serum cortisol level, single patient (second suppressed patient of Cohort 2 bid, 8 days after the end of treatment): 22.4 µg/dL
- Post-stimulation serum cortisol level, single patient (second suppressed patient of Cohort 2 bid, Screening): 20.5 µg/dL
- Post-stimulation serum cortisol level, single patient (second suppressed patient of Cohort 2 bid, Week 2): 16.7 µg/dL
- Post-stimulation serum cortisol level, single patient (suppressed patient of Cohort 1 bid, Week 2): 17.6 µg/dL
- Post-stimulation serum cortisol level, single patient (suppressed patient of Cohort 1 bid, Week 4 (2 weeks post-treatment)): 18.9 µg/dL
